Test results taken from PMC8234864, “Early Effects of the Soluble Amyloid β25-35 Peptide in Rat Cortical Neurons: Modulation of Signal Transduction Mediated by Adenosine and Group I Metabotropic Glutamate Receptors” (International Journal of Molecular Sciences, 2021).
Where no end group is shown, it is not given here.

What was measured:
Type in all cases: cell-based, rat
[1] = system: mGluR1 (GRM1) gene expression; assay: mGluR1 gene expression by real-time PCR; settings: 25 µM, 24 or 48 h, vs control neurons
Procedure: (§1) Total RNA was extracted using an ABI 6100 Nucleic Acid PrepStation according to the manufacturer’s protocol (Applied Biosystems Inc., Foster City, CA, USA). Total RNA from cells was isolated and stored at −80 °C. The quality of isolated RNA was estimated by the ratio A260/A280 and was in the range of 1.9–2.1. RNA integrity was evaluated by agarose gel electrophoresis according to MIQE guidelines using the “bleach gel” method. RNA concentrations were determined from the A260. One microgram of total RNA was reverse transcribed using Applied Biosystems High-Capacity cDNA Archive Kit.
(§2) To assess relative gene expression in neurons, quantitative real-time RT-PCR analysis was performed with an Applied Biosystems Prism 7500 Fast Sequence Detection System using TaqMan® universal PCR master mix according to the manufacturer’s specifications. […] Levels of RNA expression were determined using the 7500 Fast System SDS software version 1.3.1 (Applied Biosystems) according to the 2^−ΔΔCt method. […] The results from three independent repeat assays, performed in different plates each using different cDNA’s from the cultures analyzed, were averaged to produce a single mean quantity value for each mRNA.

[2] = system: mGluR1; assay: Extracellular immunostaining of mGluR1 in non-permeabilized neurons; settings: 25 µM, 24 h, whole-cell immunostaining
Procedure: The quantitative analysis of the levels of Group I mGluR and mGluR2,3 at the plasma membrane was performed with extracellular targeted polyclonal antibodies (mGluR1, mGluR5 and mGluR2,3, Alomone Labs, Jerusalem, Israel), as previously described with minor modifications. Briefly, after 2 weeks in culture, the culture medium was removed and cells washed with Locke Buffer (LB, pH 7.4). Cells were then fixed with 4% paraformaldehyde for 10 min at room temperature and washed with three 10-min intervals with LB.
Nonspecific staining was suppressed by blocking with 3% normal goat serum in LB for 60 min. […]
To evaluate the degree of fluorescence intensity in cortical neurons, fluorescence was measured to estimate the protein expression in the different experimental conditions analyzed. Images (448.6 µm × 335.08 µm) obtained with a digital camera (Leica DFC350FX R2), attached to a Leica DMI6000B (Leica Microsystems, Wetzlar, Germany) fluorescent microscope, were used for quantification (20x HCX PL FLUOTAR 0.4 dry objective). […] Fluorescence intensity was estimated by averaging mean grey values. […] Data were normalized to the total number of cells in the analyzed fields. The mean fluorescence background, calculated in the unstained regions between neurons, was subtracted from the fluorescence intensity of each data point. […]

[3] = system: mGluR5 (GRM5) gene expression; assay: mGluR5 gene expression by real-time PCR; settings: 25 µM, 24 or 48 h, vs control neurons
Procedure: as §1, §2

GSNKGAIIGLM [Aβ25-35]
mGluR1 gene expression [1]: increase
mGluR1 density at the membrane level, increase over control value [2]: more than 7 fold
mGluR5 gene expression [3]: did not present any significant variation
